What was measured:
rats = experiment: Forced swim test; type: in vivo, rat; settings: 0.1 mg/kg i.p., against vehicle-treated controls, 5-min FST session
Procedure: (§1) Behavioral testing was applied to a cohort of 12 rats. Following 7 days of daily i.p. treatment with i) vehicle (10% DMSO, 10% Tween 80, 80% saline; 2 mL/kg); or solubilized ii) the compound of Example 2 (0.025 mg/kg) or iii) the compound of Example 2 (0.1 mg/kg), rats were exposed to the modified forced swim test (FST). Briefly, FST exposure (15 min exposure, 25° C. tap water, 30 cm water depth) was performed 18-24 h after the previous i.p. treatment, after which rats were returned to their home cages to dry for approximately 2-3 h, then given daily i.p. treatment as before. FST testing was performed one day later (5 min test, 25° C. tap water, 30 cm water depth) with behaviors digitally recorded for subsequent analysis of immobility by a trained reviewer, blinded to treatment groups. Rats were returned to home cages and monitored without treatment for 72 h. […] Animals were then evaluated for locomotor activity in an open field (60 cm square) using automated tracking software (MedAssociates).
(§2) Rats were exposed to a 15 min session of forced swimming in 25° C. water (20 cm diameter cylinder, 30 cm water depth). […] After 1 day, rats were tested for immobility time during 5-min FST sessions which were videotaped and scored by a trained observer blinded to treatment groups.

HDAC = experiment: In vivo PET imaging: blocking of whole brain uptake of the radiolabeled compound of Example 3; set-up: species or system rat
Procedure: Male Sprague-Dawley rats were utilized in pairs, anesthetized with inhalational isoflurane (Forane) at 3% in a carrier of 1.5-2 L/min medical oxygen and maintained at 2% isoflurane for the duration of the scan. The rats were arranged head-to-head in a Triumph Trimodality PET/CT/SPECT scanner (Gamma Medica, Northridge, Calif.). Rats were injected standard references or vehicle via a lateral tail vein catheterization at the start of Positron Emission Tomography (PET) acquisition. Dynamic PET acquisition lasted for 60 min and was followed by computed tomography (CT) for anatomic co-registration. PET data were reconstructed using a 3D-MLEM method resulting in a full width at half-maximum resolution of 1 mm. Reconstructed images were exported from the scanner in DICOM format along with an anatomic CT for rodent studies. These files were imported to PMOD (PMOD Technologies, Ltd.) and manually coregistered using six degrees of freedom.
Volumes of interest (VOIs) were drawn manually as spheres in brain regions guided by high resolution CT structural images and summed PET data, with a radius no less than 1 mm to minimize partial volume effects. Time-activity curves (TACs) were exported in terms of decay corrected activity per unit volume at specified time points with gradually increasing intervals. The TACs were expressed as percent injected dose per unit volume for analysis.
Summed PET images following injection with the ^11C radiolabeled (E)-3-(4-((((1r,3R,5S)-adamantan-1-ylmethyl)(methyl)amino)methyl)phenyl)-N-hydroxyacrylamide (Example 3) at baseline or after 5 minutes pretreatment with 0.5 or 2.0 mg/kg unlabeled (E)-3-(4-((((1 r,3R,5 S)-adamantan-1-ylmethyl) (methyl)amino)methyl)phenyl)-N-hydroxyacrylamide illustrate brain uptake and self-blocking, as shown in FIG. 1A. Whole-brain tracer uptake levels, normalized to uptake at 10 min, were altered by 10-40% in self-blocking experiments with 5 min pretreatment with 1.0 μg-2.0 mg/kg unlabeled (E)-3-(4-((((1r,3R,5S)-adamantan-1-ylmethyl) (methyl)amino)methyl)phenyl)-N-hydroxyacrylamide, as shown in FIGS. 1B and 1C. This quantification provides a means to measure occupancy of HDAC targets on the basis of blocked binding of the radiolabeled compound of Example 3.
Whole brain uptake of the radiotracer of Example 3 was measured 4 h after acute systemic treatment.

[1] = Weight gain of rats during treatment; type: in vivo, rat; settings: daily i.p. treatment
Procedure: as §1, §2

- average weight gain of tested rats [1]: not impacted
Compound: CN(Cc1ccc(/C=C/C(=O)Nc2ccccc2N)cc1)CC12CC3CC(CC(C3)C1)C2 [Example 2, (E)-3-(4-((((3r,5r,7r)-adamantan-1-ylmethyl)(methyl)amino)methyl)phenyl)-N-(2-aminophenyl)acrylamide]
- decrease in FST immobility scores (rats): 17%
- block of whole brain tracer uptake (HDAC; 0.1 mg/kg (lowest tested dosage), 4 h after acute systemic treatment, radiotracer of Example 3, relative to vehicle-blocked baseline): 25%
- HDAC occupancy in the brain (HDAC; 0.1 mg/kg i.p., based on PET imaging experiments): ~25%
- tracer uptake returning to baseline by (time post treatment) (HDAC; 0.1 mg/kg, radiotracer of Example 3): ≤ 7.5 h

Reference: patent US20170349540A1, “HISTONE DEACETYLASE INHIBITORS” (The General Hospital Corporation, priority 2014, published 2017)
